Laboratory results published in EP4786470A1, “METHOD FOR S[…]-CIT LINEAR PRECURSOR WITH HIGH PURITY, AND METHOD FOR PREPARING [18F]FP-CIT BY USING SAME” (The Asan Foundation, priority 2023, dated 2025).
Where “and” joins values, the source holds several entries; their conditions need not be identical. Equal entries are not always repeated.

Tests used:
[1] = cited from earlier work
[2] = Storage stability of FP-CIT linear precursor in storage solvent (purity over 12 months by HPLC analysis); type: physicochemical
Experimental: HPLC analysis was carried out using the same experimental method and analytic conditions as in Example 1-1, except that the storage temperature was -20°C. […] The purity of the FP-CIT linear precursor over time is summarized in FIG. 4 and the following Table 3.
HPLC analysis was carried out using the same experimental method and analytic conditions as in Example 1-1, except that the storage concentration was 8 mg/mL. […] The purity of the FP-CIT linear precursor over time is summarized in FIG. 5 and the following Table 4.
HPLC analysis was carried out using the same experimental method and analytic conditions as in Example 3-1, except that the storage temperature was -20°C. […] The purity of the FP-CIT linear precursor over time is summarized in FIG. 5 and the following Table 4.

## ClCCl [Dichloromethane (DCM), Dichloromethane]
[1]
  Water solubility (g/100 mL, 20°C): 1.6 g/100 mL

## COC(=O)C1C(c2ccc(I)cc2)CC2CCC1N2CCCOS(C)(=O)=O (stereo not drawn) [FP-CIT linear precursor]
[2]; CHCl3, 1 mg/mL, -20°C, 0 months (start of storage assumed 100%)
  purity of the FP-CIT linear precursor: 100.0%
[2]; CHCl3, 1 mg/mL, -20°C, 3 months
  purity of the FP-CIT linear precursor: 79.4%
[2]; CHCl3, 1 mg/mL, -20°C, 5 months
  purity of the FP-CIT linear precursor: 65% and 65.1%
[2]; CHCl3, 1 mg/mL, -20°C, 7 months
  purity of the FP-CIT linear precursor: 57.1%
[2]; CHCl3, 1 mg/mL, -20°C, 9 months
  purity of the FP-CIT linear precursor: 53.2%
[2]; CHCl3, 1 mg/mL, room temperature, 0 months (start of storage assumed 100%)
  purity of the FP-CIT linear precursor: 100.0%
[2]; CHCl3, 1 mg/mL, room temperature, 3 months
  purity of the FP-CIT linear precursor: 60.4%
[2]; CHCl3, 1 mg/mL, room temperature, 7 months
  purity of the FP-CIT linear precursor: 2.2%
[2]; CHCl3, 1 mg/mL, room temperature, 9 months
  purity of the FP-CIT linear precursor: 0.7%
[2]; DCM, 1 mg/mL, -20°C, 0 months (start of storage assumed 100%)
  purity of the FP-CIT linear precursor: 100.0%
[2]; DCM, 1 mg/mL, -20°C, 3 months
  purity of the FP-CIT linear precursor: 93.5%
[2]; DCM, 1 mg/mL, -20°C, 7 months
  purity of the FP-CIT linear precursor: 73.2%
[2]; DCM, 1 mg/mL, -20°C, 9 months
  purity of the FP-CIT linear precursor: 71.3%
[2]; DCM, 1 mg/mL, room temperature, 0 months (start of storage assumed 100%)
  purity of the FP-CIT linear precursor: 100.0%
[2]; DCM, 1 mg/mL, room temperature, 3 months
  purity of the FP-CIT linear precursor: 47.0%
[2]; DCM, 1 mg/mL, room temperature, 5 months
  purity of the FP-CIT linear precursor: 34% and 34.2%
[2]; DCM, 1 mg/mL, room temperature, 7 months
  purity of the FP-CIT linear precursor: 30.9%
[2]; DCM, 1 mg/mL, room temperature, 9 months
  purity of the FP-CIT linear precursor: 13.1%
[2]; EA, 1 mg/mL, -20°C, 0 months (start of storage assumed 100%)
  purity of the FP-CIT linear precursor: 100.0%
[2]; EA, 1 mg/mL, -20°C, 1 month
  purity of the FP-CIT linear precursor: 97.5%
[2]; EA, 1 mg/mL, -20°C, 3 months
  purity of the FP-CIT linear precursor: 97.4%
[2]; EA, 1 mg/mL, -20°C, 5 months
  purity of the FP-CIT linear precursor: 96.7%
[2]; EA, 1 mg/mL, -20°C, 7 months
  purity of the FP-CIT linear precursor: 96.4%
[2]; EA, 1 mg/mL, -20°C, 9 months
  purity of the FP-CIT linear precursor: 96.4%
[2]; EA, 1 mg/mL, room temperature, 0 months (start of storage assumed 100%)
  purity of the FP-CIT linear precursor: 100.0%
[2]; EA, 1 mg/mL, room temperature, 3 months
  purity of the FP-CIT linear precursor: 91.2%
[2]; EA, 1 mg/mL, room temperature, 7 months
  purity of the FP-CIT linear precursor: 39.8%
[2]; EA, 1 mg/mL, room temperature, 9 months
  purity of the FP-CIT linear precursor: 28.4%
[2]; EA, 8 mg/mL, -20°C, 0 months (start of storage assumed 100%)
  purity of the FP-CIT linear precursor: 100.0%
[2]; EA, 8 mg/mL, -20°C, 1 month
  purity of the FP-CIT linear precursor: 99.3%
[2]; EA, 8 mg/mL, -20°C, 3 months
  purity of the FP-CIT linear precursor: 99.0%
[2]; EA, 8 mg/mL, -20°C, 7 months
  purity of the FP-CIT linear precursor: 96.7%
[2]; EA, 8 mg/mL, -20°C, 9 months
  purity of the FP-CIT linear precursor: 96.4%
[2]; EA, 8 mg/mL, room temperature, 0 months (start of storage assumed 100%)
  purity of the FP-CIT linear precursor: 100.0%
[2]; EA, 8 mg/mL, room temperature, 3 months
  purity of the FP-CIT linear precursor: 64.3%
[2]; EA, 8 mg/mL, room temperature, 5 months
  purity of the FP-CIT linear precursor: 43% and 43.3%
[2]; EA, 8 mg/mL, room temperature, 7 months
  purity of the FP-CIT linear precursor: 16.2%
[2]; EA, 8 mg/mL, room temperature, 9 months
  purity of the FP-CIT linear precursor: 13.5%
[2]; THF, 1 mg/mL, -20°C, 0 months (start of storage assumed 100%)
  purity of the FP-CIT linear precursor: 100.0%
[2]; THF, 1 mg/mL, -20°C, 1 month
  purity of the FP-CIT linear precursor: 98.0%
[2]; THF, 1 mg/mL, -20°C, 3 months
  purity of the FP-CIT linear precursor: 96.7%
[2]; THF, 1 mg/mL, -20°C, 7 months
  purity of the FP-CIT linear precursor: 95.1%
[2]; THF, 1 mg/mL, -20°C, 9 months
  purity of the FP-CIT linear precursor: 94.7%
[2]; THF, 1 mg/mL, room temperature, 0 months (start of storage assumed 100%)
  purity of the FP-CIT linear precursor: 100.0%
[2]; THF, 1 mg/mL, room temperature, 3 months
  purity of the FP-CIT linear precursor: 89.9%
[2]; THF, 1 mg/mL, room temperature, 7 months
  purity of the FP-CIT linear precursor: 56.6%
[2]; THF, 1 mg/mL, room temperature, 9 months
  purity of the FP-CIT linear precursor: 25.6%
[2]; THF, 8 mg/mL, -20°C, 0 months (start of storage assumed 100%)
  purity of the FP-CIT linear precursor: 100.0%
[2]; THF, 8 mg/mL, -20°C, 1 month
  purity of the FP-CIT linear precursor: 98.8%
[2]; THF, 8 mg/mL, -20°C, 3 months
  purity of the FP-CIT linear precursor: 97.5%
[2]; THF, 8 mg/mL, -20°C, 7 months
  purity of the FP-CIT linear precursor: 94.7%
[2]; THF, 8 mg/mL, -20°C, 9 months
  purity of the FP-CIT linear precursor: 94.4%
[2]; THF, 8 mg/mL, -20°C, 12 months
  purity of the FP-CIT linear precursor: 89% and 89.7%
[2]; THF, 8 mg/mL, room temperature, 0 months (start of storage assumed 100%)
  purity of the FP-CIT linear precursor: 100.0%
[2]; THF, 8 mg/mL, room temperature, 3 months
  purity of the FP-CIT linear precursor: 72.9%
[2]; THF, 8 mg/mL, room temperature, 5 months
  purity of the FP-CIT linear precursor: 30% and 30.4%
[2]; THF, 8 mg/mL, room temperature, 7 months
  purity of the FP-CIT linear precursor: 5.5%
[2]; THF, 8 mg/mL, room temperature, 9 months
  purity of the FP-CIT linear precursor: 5.5%

## CCOC(C)=O [Ethyl acetate (EA), Ethyl acetate]
[1]
  Water solubility (g/100 mL, 20°C): 8.3 g/100 mL
